Measured values taken from patent US20260306460A1, “COMPOSITION FOR REMOVING AND INHIBITING SENESCENT CELLS, AND USES THEREOF” (LIFECEUTIX CO., LTD., priority 2023, published 2026).

Legend:
naturally aged mice = assay: p16, MMP3, IL6 mRNA in liver of naturally aged mice (qRT-PCR), Example 15; format: in vivo, mouse; conditions: untreated aged = 100%, 5 days; for p16 mRNA: LX-405 10 mg/kg ip, LX-801 100 mg/kg ip, LX-1102 100 mg/kg po, LX-1801 50 mg/kg ip, LX-2101 10 mg/kg ip, LX-3403 100 μg ip; for IL6 mRNA / MMP3 mRNA: doses as p16 mRNA
Experimental: In the same manner as in Example 7-1 of WO2023-085787 A1, naturally aged mice were administered LX-405 (5% DMSO in PBS solution, 10 mg/kg, intraperitoneal administration), LX-801 (PBS, 100 mg/kg, intraperitoneal administration), LX-1102 (0.5% CMC-Na solution, 100 mg/kg, oral administration), LX-1801 (PBS, 50 mg/kg, intraperitoneal administration), LX-2101 (0.5% CMC-Na solution, 10 mg/kg, intraperitoneal administration), and LX-3403 (mouse anti-PD-1 antibody (BioXcell), 100 μg, intraperitoneal administration) for 5 days under the following conditions. The control group was administered only the solution in the same volume. After drug administration was completed, the method described in each Example below was performed. The mouse was sacrificed in the same manner as Example 7-2 and 7-6 of WO2023-085787 A1. Total RNA was extracted from liver tissue, and qRT-PCR was performed and analyzed using synthesized cDNA. […] The mRNA amounts of p16, MMP3, and IL6 after natural aging were induced were calculated as 100% and compared them with the mRNA amounts of p16, MMP3, and IL6 after treatment with the test compound. Furthermore, an open field test was performed to analyze aging-related frailty in mice using the same method as Example 7-7 of WO2023-085787 A1. […] The amount of activity evaluated after inducing aging was calculated as 100% and compared it with the amount of activity evaluated after treatment with the test compound.

senescent human cells = assay: Viability of doxorubicin-induced senescent human cells (CellTiter-Glo), Example 11; format: cell-based
Experimental: Cells in which senescence was induced by treatment with doxorubicin were treated with the test compound at designated concentrations and measured using the CellTiter-Glo Luminescent Cell Viability Assay (Promega).
After 3 days, cell viability was measured using CellTiter-Glo Luminescent Cell Viability Assay (Promega) or light microscopy.

[1] = test system: doxorubicin-induced aged C57BL6J mice; assay: Thrombosis (Serpine1, Plau, TIMP1 mRNA, tail bleeding time) in doxorubicin-aged mice, Example 22-10, Table 39; format: in vivo, mouse; conditions: for Plau mRNA / Serpine1 mRNA / TIMP1 mRNA: qRT-PCR, doxorubicin-induced aged mice, amount after aging calculated as 100%; for Tail amputation bleeding time: tail incised 5 mm from the tip, saline 37° C., untreated 51 (±3.6)
Experimental: Eight-week-old male C57BL6J mice (KRIBB Laboratory Animal Resource Center) were acclimated to the experimental environment for one week. Afterwards, the anticancer agent doxorubicin was administered intraperitoneally at a concentration of 10 mg/kg, inducing aging for more than 10 days. The aging-induced mice were randomly assigned to experimental and control groups. LX-403 was mixed with a 10% ethanol solution of PEG400 and administered orally at a concentration of 25 mg/kg or intradermally at a concentration of 1 μM for 21 days. LX-1801 was mixed in distilled water with 4% DMSO, 30% PEG300, and 5% Tween80 and administered intradermally at a concentration of 0.4 μM daily for 21 days. LX-2001 was mixed in PBS and administered intradermally at a concentration of 2 μM daily for 21 days. LX-2002 was mixed in distilled water with 4% DMSO, 30% PEG300, and 5% Tween80 and administered intradermally at a concentration of 2 μM daily for 21 days. […] LX-2005 was mixed in distilled water with 4% DMSO, 30% PEG300, and 5% Tween80 and administered intradermally at a concentration of 90 μM daily for 21 days. LX-2007 was mixed in distilled water with 4% DMSO, 30% PEG300, and 5% Tween80 and administered intradermally at a concentration of 90 μM daily for 21 days. […] LX-3002 was mixed in distilled water with 4% DMSO, 30% PEG300, and 5% Tween80 and administered orally at a concentration of 10 mg/kg daily for 21 days. […] LX-5411 was mixed in 5% phosphate-buffered saline (PBS) and administered orally at a concentration of 10 mg/kg daily for 21 days or intradermally at a concentration of 3 μM. LX-5701 was mixed in PBS and administered orally at a concentration of 360 mg/kg daily for 21 days. LX-6807 was mixed in saline and administered intraperitoneally at a concentration of 1 mg/kg daily for 21 days. The control group received only the solution in the same volume. After the end of drug administration, the methods described in each example below were performed.
Using cDNA synthesized using the same method as in Example 7-6 of WO2023-085787 A1, qRT-PCR was performed and analyzed for the liver-produced senescence-associated secretory factor (SASP) and hemostasis-related factors like Serpine1 (PAI1), Plau (Urokinase), and TIMP1. To determine whether the treatment affects in vivo hemostasis, tail bleeding time was analyzed in mice induced to age by chemotherapy. Specifically, for tail bleeding analysis, mice were anesthetized, and the tail was incised 5 mm from the tip with a razor blade. The bleeding tail was then placed in a 15 ml test tube containing saline preheated to 37° C., and the time until blood flow stopped was measured. The bleeding time was determined when bleeding stopped for 10 seconds. […] The qPT-PCR results were compared with the amounts of each factor after aging was induced, calculating the amount of each factor as 100% and then treating it with the test compound.

senescent cells = assay: Viability of senescent cells (CellTiter-Glo), Example 17, Table 13; conditions: Homo sapiens, read-out: Survival (%)
Experimental: Cells induced to undergo senescence by doxorubicin treatment were treated with test compound at designated concentrations and measured using the CellTiter-Glo Luminescent Cell Viability Assay (Promega).

Compound | p16 mRNA (naturally aged mice) | IL6 mRNA (naturally aged mice) | MMP3 mRNA (naturally aged mice) | Plau mRNA [1] | Serpine1 mRNA [1] | TIMP1 mRNA [1] | Tail amputation bleeding time [1] | viability at 1.1 µM (senescent cells) | viability at 10 µM (senescent cells) | further results
C[C@@H]1CC[C@@]23C[C@H](O)C(=O)[C@@]2(O)[C@]1(C)[C@H](OC(=O)CCl)C[C@@H](C1=CCn2c(=O)n(-c4ccccc4)c(=O)n2C1)[C@@H]3C [LX-1801, (2S,3aS,4S,5R,7R,8S,8aS,11R)-7-(1,3-Dioxo-2-phenyl-2,3,5,8-tetrahydro-1H-[1,2,4]triazolo[1,2-a]pyridazin-6-yl)-2,3a-dihydroxy-4,8,11-trimethyl-3-oxooctahydro-1H-4,8a-propanoazulen-5-yl 2-Chloroacetate] | 77.4 (±5.2) % | 56.8 (±19.3) % | 47.1 (±15.6) % | – | – | – | – | – | – | –
C[C@H]1[C@H](C)CC[C@]2(C(=O)O)CC[C@]3(C)C(=CC[C@@H]4[C@@]5(C)CC[C@H](O)C(C)(C)[C@@H]5CC[C@]43C)[C@H]12 [LX-2001, Ursolic acid] | – | – | – | – | – | – | – | – | – | viability at […] (senescent human cells; Homo sapiens, 3.3 μM, 0 μM = 100, read-out: Survival): 0.8%
Cc1cccc([C@H](C)c2cnc[nH]2)c1C [LX-6807, Dexmedetomidine] | – | – | – | 45 (±3.6) % | 31 (±1.9) % | 59 (±1.9) % | 93 (±6.4) sec | 95.1% | 42.5% | viability at 30 µM (senescent cells): 6.9%
Tocofersolan [LX-3001] | – | – | – | 69 (±2.2) % | 76 (±2.1) % | 73 (±3.1) % | 72 (±2.6) sec | – | – | Survival (senescent human cells; 1.1 μM, 0 μM = 100): 74.8%; Survival (senescent human cells; […], 0 μM = 100): 1.1%
CCCC\C=C/C=C/C=C\CCCCCCCC(=O)O [LX-2707, Punicic acid] | – | – | – | 65 (±1.8) % | 52 (±3.5) % | 46 (±1.5) % | 80 (±4.3) sec | – | – | –
S=C(N/N=C1\CCCc2cccnc21)N1CCN(c2ccccn2)CC1 [LX-801] | 69.4 (±6.9) % | 71.1 (±1.8) % | 76.5 (±4.2) % | – | – | – | – | – | – | Survival (senescent human cells; 1.1 μM, 0 μM = 100): 50.5%; Survival (senescent human cells; 10 μM, 0 μM = 100): 28.2%; Survival (senescent human cells; […], 0 μM = 100): 48.9%
C#CC(=O)N1[C@@H](CCCC)Cc2cc(OC)ccc2[C@@H]1c1ccc(NC23CC4CC(CC(C4)C2)C3)cc1 [LX-5411] | – | – | – | – | – | – | – | 75.4% | 2.8% | –
CC1(C)CC[C@]2(NC(=O)C(C)(F)F)CC[C@]3(C)[C@H](C(=O)C=C4[C@@]5(C)C=C(C#N)C(=O)C(C)(C)[C@@H]5CC[C@]43C)[C@@H]2C1 [LX-2101, Omaveloxolone] | 62.5 (±13.1) % | 64.1 (±8.8) % | 53.6 (±14.3) % | – | – | – | – | – | – | –
COC(=O)c1ccc([C@H]2c3[nH]c4ccccc4c3C[C@H](C(=O)OC)N2C(=O)CCl)cc1 [LX-405] | 76.9 (±6.8) % | 73.6 (±7.4) % | 64.7 (±11.5) % | – | – | – | – | – | – | induced death of cells (senescent human cells; senescent foreskin cells, 30 μM, 3 days): induced the death of most cells
COC(=O)[C@H]1Cc2c([nH]c3ccccc23)[C@H](c2ccc(S(C)(=O)=O)cc2)N1C(=O)CCl [LX-5401, methyl (1S,3R)-2-(2-chloroacetyl)-1-(4-(methylsulfonyl)phenyl)-2,3,4,9-tetrahydro-1H-pyrido[3,4-b]indole-3-carboxylate] | – | – | – | – | – | – | – | 99.5% | 66% | viability at 30 µM (senescent cells): 24.6%
O=C1C2CCN(CC2)C1CNC(=O)C(F)(F)F (stereo not drawn) [LX-5701] | – | – | – | 53 (±13.9) % | 45 (±20.1) % | 53 (±11.2) % | 89 (±15.2) sec | 91.4% | 19.3% | –
